# In US20200329707A1, “PYRAZOLAMIDE COMPOUND HAVING INSECTICIDAL ACTIVITY AND USE THEREOF” (JIANGSU FLAG CHEMICAL INDUSTRY CO., LTD., priority 2017, published 2020):
# Experiments:
# Assay type in all cases: in vivo
# [1] = test system: Helicoverpa armigera; experiment: Insecticidal effect on Helicoverpa armigera, immersed cabbage leaf discs in 24-well plate; conditions: foliar, 72 h, read-out: Insecticidal activity (%) on Helicoverpa armigera (mortality %)
# Method: (§1) The test reagents were all individually dissolved in a mixed solvent of acetone:[…] (1:1) to give a 1000 mg/L solution. 1% Tween-80 was added as an emulsifier to each solution. These solutions were then diluted with 1% Tween-20 solution in water to give desired concentrations of test solutions. An aqueous solution containing 1% Tween-20 was used as a control.
# Third instar larvae of Helicoverpa armigera were used, and the insecticidal effect test was carried out by feeding with leaves immersed with various compounds. The cabbage leaves that had not been exposed to insecticides were punched into leaf discs having a diameter of […]. The leaf discs were immersed in each compound solution for 30 s. Then the leaf discs were placed on absorbent paper and air-dried until there were no obvious water stains on the leaf discs. A washed 24-well plate was prepared, and about 1 ml of water agar medium was fed to each well. After solidification, the treated leaf discs were placed on the medium in the 24-well plate, and then 1 3rd-instar larva of Helicoverpa armigera was inoculated into each well. The 24-well plate was covered after inoculation, placed in an insect cultivating chamber at 25° C. with a 16-h-light/8-h-dark photoperiod. The number of deaths in 3 days was investigated, and the mortality was calculated.
# [2] = test system: Spodoptera litura; experiment: Insecticidal effect on Spodoptera litura, feeding with immersed cabbage leaf discs; conditions: 40 ppm reagent solution; 3rd instar larvae; deaths in 5 days
# Method: as §1
# Third instar larvae of Spodoptera litura were used, and the insecticidal effect test was carried out by feeding with leaves immersed with various compounds. The cabbage leaves that had not been exposed to insecticides were cut into leaf discs of about 40 square-mm with scissors. The leaf discs were immersed in each compound solution for 30 s. Then the leaf discs were placed on absorbent paper and air-dried until there were no obvious water stains on the leaf discs. The leaf discs soaked with the reagents were placed in a petri dish (7 cm), each petri dish having 3 leaf discs. The 3rd instar larvae of Spodoptera litura raised on the indoor cabbage plants were gently picked up with a pen brush and placed on the leaf discs in the petri dish, each petri dish having 10-15 insects. After the insects were inoculated, the petri dish was covered, and placed in an insect-cultivating chamber at 25° C. with a 16-h-light/8-h-dark photoperiod. The number of deaths in 5 days was investigated, and the mortality was calculated.
# [3] = test system: Frankliniella intonsa; experiment: Insecticidal effect on Frankliniella intonsa, treated filter paper in petri dish; conditions: 60 ppm reagent solution; nymphs; 72 hrs
# Method: as §1
# On the bottom of a glass petri dish with a diameter of 6 cm, a piece of filter paper with the same diameter was laid. 1 mL of the reagent solution was drawn by a pipette and uniformly dripped on the filter paper. After the acetone was volatilized, Nymphs of Frankliniella intonsa were transferred from Bombax ceiba with a brush pen to the filter paper in the petri dish. After 0.5-1 h when the insect body was fully covered with the reagent, 3 cm-long petals of Bombax ceiba were placed and the Petri dish were covered. 3 replicates were set for each treatment. After the insects were inoculated, the petri dish was placed in an insect-cultivating chamber at 25° C. with a 16-h-light/8-h-dark photoperiod. 72 hrs after the insects were inoculated, the deaths of Frankliniella intonsa were investigated to calculate the mortality.
Structure (SMILES),mortality at 5 ppm [1],mortality at 15 ppm [1],control effect on Spodoptera litura [2],control effect on Frankliniella intonsa [3]
CC(C)(NC(=O)c1cc(Cl)cc(Cl)c1NC(=O)c1cc(Br)nn1-c1ncccc1Cl)C(N)=O [KC2],16.7%,37.5%,,
"Cc1cc(Cl)cc(C(=O)NC(C)(C)C(N)=O)c1NC(=O)c1cc(Br)nn1-c1ncccc1Cl [Compound 1.1, N-(2-N-((1-amino-2-methyl-1-acylpropan-2-yl)-formyl)-4-chloro-6-methylphenyl)-1-(3-chloropyridin-2-yl)-3-bromo-1H-pyrazol-5-carboxamide]",75%,87.5%,more than 80%,more than 80%
CC(C)(NC(=O)c1cc(Cl)cc(Cl)c1NC(=O)c1cc(Cl)nn1-c1ncccc1Cl)C(N)=O [KC1],10%,46.7%,,
